Test results: article doi:10.1101/2020.04.22.021360v1 (biorxiv, 2020)

What was measured:
[1] = target: T1, PDE2 (cGMP-dependent 3',5'-cyclic phosphodiesterase; PDE2A) (Homo sapiens, UniProt O00408); assay: biochemical
[2] = target: T1, PDE2 (cGMP-dependent 3',5'-cyclic phosphodiesterase; PDE2A); assay: MicroScale Thermophoresis, 12-concentration dilution; format: binding

T1 sequence (O00408 2-941): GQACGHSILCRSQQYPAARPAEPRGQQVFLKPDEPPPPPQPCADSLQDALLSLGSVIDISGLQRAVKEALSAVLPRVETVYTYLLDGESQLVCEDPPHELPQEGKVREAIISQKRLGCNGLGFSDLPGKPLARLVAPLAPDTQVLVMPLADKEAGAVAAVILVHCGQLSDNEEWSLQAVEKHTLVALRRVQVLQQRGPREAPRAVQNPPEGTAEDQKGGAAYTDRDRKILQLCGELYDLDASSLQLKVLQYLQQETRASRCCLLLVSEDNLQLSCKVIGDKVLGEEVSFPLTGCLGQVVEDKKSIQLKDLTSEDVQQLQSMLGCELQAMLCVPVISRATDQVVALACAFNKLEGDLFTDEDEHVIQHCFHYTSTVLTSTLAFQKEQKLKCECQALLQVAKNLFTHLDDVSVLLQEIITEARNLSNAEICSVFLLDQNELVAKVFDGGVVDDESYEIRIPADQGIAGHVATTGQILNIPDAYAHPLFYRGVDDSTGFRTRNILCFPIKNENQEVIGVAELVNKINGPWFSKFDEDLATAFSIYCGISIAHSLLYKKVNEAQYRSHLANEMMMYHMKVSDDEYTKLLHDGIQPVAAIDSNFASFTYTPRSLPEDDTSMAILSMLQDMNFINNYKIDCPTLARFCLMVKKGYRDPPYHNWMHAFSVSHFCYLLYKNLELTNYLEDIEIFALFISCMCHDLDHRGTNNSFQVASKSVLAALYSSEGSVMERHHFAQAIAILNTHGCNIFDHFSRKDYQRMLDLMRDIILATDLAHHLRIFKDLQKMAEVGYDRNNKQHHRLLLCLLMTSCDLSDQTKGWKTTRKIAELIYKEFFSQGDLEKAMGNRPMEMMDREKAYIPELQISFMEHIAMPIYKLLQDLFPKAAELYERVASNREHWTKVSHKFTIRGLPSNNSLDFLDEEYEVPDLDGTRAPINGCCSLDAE

Kd [2]	SMILES	further results
14.2 µM	CSc1nc(Cl)c(C)c(NCC2CCOC2)n1 (stereo not shown) [Z3216015031]	Kd [1]: 12.8 µM
> 100 µM	O=C(Nc1ccc(Cl)cc1F)c1ccc(-n2cnc3ccccc32)cc1 [Z87546752]	
> 100 µM	Cc1nccc(C(=O)Nc2[nH]ncc2-c2cccc(Cl)c2)n1 [Z973817294]	
	O=C(O)c1ccc(C=C2Cc3c(O)cccc3C2=O)cc1 [Z217160080]	Kd ([2]; read-out: apparent KD, dye-labelled PDE2, weak binder, no KD fit): > 100 µM
> 100 µM	CCSc1nc2ccccc2c2nc(C)nn12 [Z226974122]	
	CCn1c(=O)c(=O)[nH]c2cc(C(=O)Nc3nc(-c4cccnc4)cs3)ccc21 [Z29458849]	Kd ([1]; binder): 21.1 µM; Kd ([2]; dye-labelled PDE2, 1:1 fit): 24.9 µM

SMILES	Kd [2]	further results
CSc1nc2ccccc2c(=O)n1-c1ccc(F)cc1F [Z19056583]	10.1 µM	Kd [1]: 9.58 µM
